# Results: US9409884B2 (Rigel Pharmaceuticals, Inc., priority 2012, dated 2016)
# Molecular target: AMPK
# Assay: AMPK activation, enzyme-linked immunosorbent assay
# Format: biochemical
# Conditions: Table 8, compounds of Table 1
# Summary of the method: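 AMPK activation by test compounds was measured by enzyme-linked immunosorbent assay.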
row,EC50,SMILES
1,< 100 nM,"O=C(N[C@H]1CCN(Cc2ccncc2)C1)c1ccc(OC2CCN(c3ccc(C(F)(F)F)cc3)CC2)cn1 [Compound 1-30, (S)-N-(1-(pyridin-4-ylmethyl)pyrrolidin-3-yl)-5-(1-(4-(trifluoromethyl)phenyl)piperidin-4-yloxy)picolinamide]"
2,< 100 nM,"O=C(NC1CCN(Cc2ccncc2)CC1)c1cncc(OC2CCN(c3ccc(C(F)(F)F)cc3)CC2)c1 [Compound 1-14, N-(1-(pyridin-4-ylmethyl)piperidin-4-yl)-5-(1-(4-(trifluoromethyl)phenyl)piperidin-4-yloxy)nicotinamide]"
3,100 to 500 nM,"O=C(NC1CCN(Cc2ccc(F)cc2)CC1)c1cc(OC2CCN(c3ccc(C(F)(F)F)cc3)CC2)ccn1 [Compound 1-29, N-(1-(4-fluorobenzyl)piperidin-4-yl)-4-(1-(4-(trifluoromethyl)phenyl)piperidin-4-yloxy)picolinamide]"
4,< 100 nM,"O=C(NC1CCN(Cc2ccncc2)CC1)c1cc2ccc(OC3CCN(c4ccc(C(F)(F)F)cc4)CC3)cc2o1 [Compound 1-87, N-(1-(pyridin-4-ylmethyl)piperidin-4-yl)-6-(1-(4-(trifluoromethyl)phenyl)piperidin-4-yloxy)benzofuran-2-carboxamide]"
5,5000 to 10000 nM,"Cc1c(C(=O)NC2CCNCC2)oc2cc(OC3CCN(c4ccc(C(F)(F)F)cc4)CC3)ccc12 [Compound 1-62, 3-methyl-N-(piperidin-4-yl)-6-(1-(4-(trifluoromethyl)phenyl)piperidin-4-yloxy)benzofuran-2-carboxamide]"
6,500 to 1000 nM,"N#Cc1cccc(CN2CCC(NS(=O)(=O)c3ccc(OC4CCN(c5ccc(C(F)(F)F)cc5)CC4)nc3)CC2)c1 [Compound 1-57, N-(1-(3-cyanobenzyl)piperidin-4-yl)-6-(1-(4-(trifluoromethyl)phenyl)piperidin-4-yloxy)pyridine-3-sulfonamide]"
7,100 to 500 nM,"N#Cc1ccccc1CN1CCC(NC(=O)c2cc3ccc(OC4CCN(c5ccc(C(F)(F)F)cc5)CC4)cc3s2)CC1 [Compound 1-146, N-(1-(2-cyanobenzyl)piperidin-4-yl)-6-(1-(4-(trifluoromethyl)phenyl)piperidin-4-yloxy)benzo [b]thiophene-2-carboxamide]"
8,500 to 1000 nM,"O=C(N[C@@H]1CCN(Cc2ccc(F)cc2)C1)c1ccc(OC2CCN(c3ccc(C(F)(F)F)cc3)CC2)cn1 [Compound 1-34, (R)-N-(1-(4-fluorobenzyl)pyrrolidin-3-yl)-5-(1-(4-(trifluoromethyl)phenyl)piperidin-4-yloxy) picolinamide]"
9,< 100 nM,"O=C(NC1CCN(Cc2ccc(C(F)(F)F)cc2)CC1)c1cc2ccc(OC3CCN(c4ccc(C(F)(F)F)cc4)CC3)cc2o1 [Compound 1-99, N-(1-(4-(trifluoromethyl)benzyl)piperidin-4-yl)-6-(1-(4-(trifluoromethyl)phenyl)piperidin-4-yloxy)benzofuran-2-carboxamide]"

# Same assay, conditions: Table 9, compounds of Table 2
row,EC50,SMILES
1,10000 to 50000 nM,"O=C(NC1CCN(Cc2ccccc2)CC1)c1ccc2[nH]c3c(c2c1)CN(C(=O)OCc1ccccc1)CC3 [Compound 2-2, benzyl 8-(1-(4-benzyl)piperidin-4-ylcarbamoyl)-3,4-dihydro-1H-pyrido[4,3-b]indole-2(5H)-carboxylate]"
2,10000 to 50000 nM,"NC(=O)c1ccc(CN2CCc3[nH]c4ccc(C(=O)NC5CCN(Cc6ccc(C(F)(F)F)cc6)CC5)cc4c3C2)cc1 [Compound 2-47, 2-(4-carbamoylbenzyl)-N-(1-(4-(trifluoromethyl)benzyl)piperidin-4-yl)-2,3,4,5-tetrahydro-1H-pyrido[4,3-b]indole-8-carboxamide]"

# Same assay, conditions: Table 10, compounds of Table 3
row,EC50,SMILES
1,100 to 1000 nM,"N#Cc1ccc(CN2CC3CC2CN3C(=O)c2nc3ccc(OC4CCN(c5ccc(C(F)(F)F)cc5)CC4)cc3o2)cc1 (stereo not shown) [Compound 3-10, 4-((5-(6-(1-(4-(trifluoromethyl)phenyl)piperidin-4-yloxy)benzo[d]oxazole-2-carbonyl)-2,5-diazabicyclo[2.2.1]heptan-2-yl)methyl)benzonitrile]"
2,100 to 1000 nM,"N#Cc1ccc(CN2CCC(NC(=O)c3nc4ccc(OC5CCN(c6ccc(C(F)(F)F)cc6)CC5)cc4s3)CC2)cc1 [Compound 3-16, N-(1-(4-cyanobenzyl)piperidin-4-yl)-6-(1-(4-(trifluoromethyl)phenyl)piperidin-4-yloxy)benzo[d]thiazole-2-carboxamide]"

# Same assay, conditions: Table 12, compounds of Table 5
row,EC50,SMILES
1,< 1000 nM,"O=C(NC1CCN(Cc2ccccc2)CC1)c1cc(Cl)c(OC2CCN(Cc3ccc(Cl)cc3)CC2)c(Cl)c1 [Compound 5-75, N-(1-benzylpiperidin-4-yl)-3,5-dichloro-4-(1-(4-chlorobenzyl)piperidin-4-yloxy)benzamide]"
2,< 1000 nM,"CC(C)Oc1ccc(CN2CC[C@@H](Oc3cccc(C(=O)NC4CCN(Cc5ccc(C#N)cc5)CC4)c3)[C@H](F)C2)cc1 [Compound 5-127, N-(1-(4-cyanobenzyl)piperidin-4-yl)-3-((3,4-trans)-3-fluoro-1-(4-isopropoxybenzyl)piperidin-4-yloxy)benzamide]"
3,< 1000 nM,O=C(NC1CCN(Cc2ccccc2)CC1)c1ccc(OC2CCN(Cc3ccc4c(c3)OCCO4)CC2)c(Cl)c1 [Compound 5-15]
4,< 1000 nM,"N#Cc1ccc(CN2CCC(Oc3c(Cl)cc(C(=O)NC4CCN(Cc5ccccc5)CC4)cc3Cl)CC2)cc1 [Compound 5-77, N-(1-benzylpiperidin-4-yl)-3,5-dichloro-4-(1-(4-cyanobenzyl)piperidin-4-yloxy)benzamide]"
5,< 1000 nM,"O=C(NC1CCN(Cc2ccccc2)CC1)c1cccc(OC2CCN(c3ccccn3)CC2)c1 [Compound 5-86, N-(1-benzylpiperidin-4-yl)-3-(1-(pyridin-2-yl)piperidin-4-yloxy)benzamide]"
6,1000 to 10000 nM,"O=C(NC1CCN(Cc2ccccc2)CC1)c1ccc(OC2CCN(Cc3cccnc3)CC2)c(F)c1 [Compound 5-38, N-(1-benzylpiperidin-4-yl)-3-fluoro-4-(1-(pyridin-3-ylmethyl)piperidin-4-yloxy)benzamide]"

# Same assay, conditions: Table 13, compounds of Table 6
row,EC50,SMILES
1,1000 to 10000 nM,"N#Cc1ccc(CN2CCC(NC(=O)c3cc4cc(NC(=O)c5cnn(Cc6ccc(C#N)cc6)c5)ccc4o3)CC2)cc1 [Compound 6-73, 1-(4-cyanobenzyl)-N-(2-(1-(4-cyanobenzyl)piperidin-4-ylcarbamoyl)benzofuran-5-yl)-1H-pyrazole-4-carboxamide]"
2,< 100 nM,"COc1ccc(CN2CCC(NC(=O)c3cc4cc(C(=O)N5CCN(Cc6cccc(S(C)(=O)=O)c6)CC5)ccc4o3)CC2)cc1F [Compound 6-141, N-(1-(3-fluoro-4-methoxybenzyl)piperidin-4-yl)-5-(4-(3-(methylsulfonyl)benzyl)piperazine-1-carbonyl) benzofuran-2-carboxamide]"
3,100 to 1000 nM,"N#Cc1ccc(CN2CCC(NC(=O)c3cc4cc(C(=O)NC5CCN(Cc6ccc(-n7cccn7)cc6)CC5)ccc4o3)CC2)cc1 [Compound 6-92, N5-(1-(4-(lH-pyrazol-1-yl)benzyl)piperidin-4-yl)-N2-(1-(4-cyanobenzyl)piperidin-4-yl)benzofuran-2,5-dicarboxamide]"
4,< 100 nM,"CS(=O)(=O)c1cccc(CN2CCN(C(=O)c3ccc4oc(C(=O)NC5CCN(Cc6ccc(C#N)c(F)c6)CC5)cc4c3)CC2)c1 [Compound 6-150, N-(1-(4-cyano-3-fluorobenzyl)piperidin-4-yl)-5-(4-(3-(methylsulfonyl)benzyl)piperazine-1-carbonyl) benzofuran-2-carboxamide]"

# Same assay, conditions: Table 14, compounds of Table 7
row,EC50,SMILES
1,10000 to 20000 nM,"CS(=O)(=O)c1ccc(CN2CCN(c3ccc(C(=O)NC4CCN(Cc5ccc(C#N)cc5)CC4)cn3)CC2)cc1 [Compound 7-79, N-(1-(4-cyanobenzyl)piperidin-4-yl)-6-(4-(4-(methylsulfonyl)benzyl)piperazin-1-yl)nicotinamide]"
2,< 1000 nM,"COCCN(C(=O)c1ccc(C(=O)N2CCC(C(=O)c3ccc(OC)cc3)CC2)nc1)C1CCN(Cc2ccc(OC(F)(F)F)cc2)CC1 [Compound 7-18, 6-(4-(4-methoxybenzoyl)piperidine-1-carbonyl)-N-(2-methoxyethyl)-N-(1-(4-(trifluoromethoxy)benzyl)piperidin-4-yl)nicotinamide]"
3,< 1000 nM,"COc1ccc(C(=O)C2CCN(C(=O)c3ccc(C(=O)NC4CCN(Cc5ccc(F)c(OC)c5)C[C@@H]4C)cn3)CC2)cc1 (stereo partly drawn) [Compound 7-97, N-((3,4-cis)-1-(4-fluoro-3-methoxybenzyl)-3-methylpiperidin-4-yl)-6-(4-(4-methoxybenzoyl)piperidine-1-carbonyl)nicotinamide]"
4,< 1000 nM,"CS(=O)(=O)c1ccc(OC2CCN(c3ccc(C(=O)NC4CCN(Cc5ccc(C#N)cc5)CC4)cn3)CC2)cc1 [Compound 7-80, N-(1-(4-cyanobenzyl)piperidin-4-yl)-6-(4-(4-(methylsulfonyl)phenoxy)piperidin-1-yl)nicotinamide]"
5,10000 to 20000 nM,"COc1ccc(C(=O)C2CCN(C(=O)c3ccc(C(=O)NC4CCN(Cc5cnn(C)c5)C[C@H]4F)cn3)CC2)cc1 (stereo partly drawn) [Compound 7-63, N-((3,4-trans)-3-fluoro-1-((1-methyl-1H-pyrazol-4-yl)methyl)piperidin-4-yl)-6-(4-(4-methoxybenzoyl)piperidine-1-carbonyl)nicotinamide]"
6,< 1000 nM,"COc1ccc(C(=O)C2CCN(C(=O)c3ccc(C(=O)NC4CCN(Cc5ccc(C)c(C#N)c5)C[C@H]4F)cn3)CC2)cc1 (stereo partly drawn) [Compound 7-58, N-((3,4-trans)-1-(3-cyano-4-methylbenzyl)-3-fluoropiperidin-4-yl)-6-(4-(4-methoxybenzoyl)piperidine-1-carbonyl)nicotinamide]"
7,< 1000 nM,"Cc1nc2cc(OC3CCN(C(=O)c4ccc(C(=O)NC5CCN(Cc6ccc(OC(F)(F)F)cc6)CC5)cn4)CC3)ccc2s1 [Compound 7-23, 6-(4-(2-methylbenzo[d]thiazol-5-yloxy)piperidine-1-carbonyl)-N-(1-(4-(trifluoromethoxy)benzyl)piperidin-4-yl)nicotinamide]"
8,< 1000 nM,"COc1ccc(C(=O)C2CCN(C(=O)c3ccc(C(=O)NC4CCN(Cc5ccc(F)c(C)c5)C[C@H]4F)cn3)CC2)cc1 (stereo partly drawn) [Compound 7-37, N-((3,4-trans)-3-fluoro-1-(4-fluoro-3-methylbenzyl)piperidin-4-yl)-6-(4-(4-methoxybenzoyl)piperidine-1-carbonyl)nicotinamide]"
